Like-named read-outs stand apart in the source and are kept apart here.
Legend:
Assay type in all cases: cell-based
[1] = system: Penicillin(PC)sensitive S. aureus; assay: In vitro MIC, two-fold serial agar dilution in Mueller-Hinton agar, Gp-Ia strains; details: Staphylococcus aureus; GpIa, 5 strains; read-out: Geometric mean of MIC, GpIa
Description: (§1) The in vitro antibacterial activity of the parent cephalosporanic acids of Formula I wherein R^4 is hydrogen is shown in Table 1 in terms of geometric mean of the Minimum Inhibitory Concentrations (MIC's) which were determined by the two-fold serial agar dilution method in Mueller-Hinton agar against 25 strains of test organisms in five groups.
Gp-Ia: Penicillin(PC)sensitive S. aureus

PCresistant S. aureus = assay: In vitro MIC, two-fold serial agar dilution in Mueller-Hinton agar, GpIb strains; details: Staphylococcus aureus, 5 strains, read-out: Geometric mean of MIC, GpIb
Description: as §1
GpIb: PCresistant S. aureus

[2] = system: Cephalothin(CET)sensitive E. coli (2 strains), K. pneumoniae (1) an P. mirabilis (2); assay: In vitro MIC, two-fold serial agar dilution in Mueller-Hinton agar, GnIa strains; details: 5 strains, read-out: Geometric mean of MIC, GnIa
Description: as §1
GnIa: Cephalothin(CET)sensitive E. coli (2 strains), K. pneumoniae (1) an […]

Citrobacter freundii = assay: In vitro MIC, Mueller-Hinton agar, inoculum 10^6 cells/ml
Description: (§2) Table 6 is a comparison of the in vitro antibacterial activities of Compound 29 and the vinyl homolog thereof FK-482 against clinically important pathogens. Thirty-seven organisms were more than 4-fold more susceptible to Compound 29 than to FK-482. FK-482 has the following formula and is described by Takaya, et al. in U.S. Pat. No. 4,559,334 patented Dec. 17, 1985 (filed Oct. 20, 1983). [drawing 14]
(§3) *; Geometric mean of MIC (μg/ml)
(§4) Mueller-Hinton agar Inoculum size; 10^6 cells/ml

Enterobacter aerogenes = assay: as above; details: Klebsiella aerogenes
Description: as §2, §3, §4

Enterobacter cloacae = assay: as above
Description: as §2, §3, §4

Morganella morganii = assay: as above
Description: as §2, §3, §4

Proteus mirabilis = assay: as above
Description: as §2, §3, §4

Proteus vulgaris = assay: as above
Description: as §2, §3, §4

Providencia rettgeri = assay: as above
Description: as §2, §3, §4

Serratia marcescens = assay: as above
Description: as §2, §3, §4

Serratia species = assay: as above
Description: as §2, §3, §4

[3] = system: clinically important pathogens; assay: Comparison of in vitro antibacterial activities of Compound 29 and FK-482 (Table 6); details: Thirty-seven organisms
Description: as §2, §4

C/C=C\C1=C(C(=O)O)N2C(=O)[C@@H](NC(=O)/C(=N\O)c3csc(N)n3)[C@H]2SC1 [Compound 29, 7β-[(Z)-2-(2-aminothiazol-4-yl)-2-(hydroxyimino)acetamido]-3-[(Z)-prop-1-en-1-yl]-3-cephem-4-carboxylic acid]
0.05 µg/mL: MIC (Proteus mirabilis; strain A 9702, read-out: MIC) | MIC (Proteus mirabilis; strain A20119, read-out: MIC)
13 µg/mL: MIC (Serratia marcescens; (GM) of the Serratia marcescens strains, read-out: Geometric mean of MIC)
25 µg/mL: MIC (Enterobacter aerogenes; strain A21044, read-out: MIC) | MIC (Serratia species; strain 8-513, read-out: MIC) | MIC (Serratia species; strain 8-1537, read-out: MIC)
3.1 µg/mL: MIC (Citrobacter freundii; strain A22177, read-out: MIC) | MIC (Enterobacter aerogenes; strain A20961, read-out: MIC) | MIC (Enterobacter aerogenes; strain A21013, read-out: MIC) | MIC (Enterobacter aerogenes; strain A21155, read-out: MIC) | MIC (Enterobacter aerogenes; strain A21503, read-out: MIC) | MIC (Enterobacter cloacae; strain A20364, read-out: MIC) | MIC (Enterobacter cloacae; strain A20464, read-out: MIC) | MIC (Proteus vulgaris; strain A 9526, read-out: MIC) | MIC (Serratia marcescens; strain A20222, read-out: MIC) | MIC (Serratia marcescens; strain A20336, read-out: MIC) | MIC (Serratia marcescens; strain A20442, read-out: MIC) | MIC (Serratia species; strain 6-330, read-out: MIC) | MIC (Serratia species; strain 6-427, read-out: MIC)
1 µg/mL: MIC (Proteus vulgaris; (GM) of the Proteus vulgaris strains, read-out: Geometric mean of MIC)
0.2 µg/mL: MIC [1] | MIC (Proteus vulgaris; strain OX-19 MS-1, read-out: MIC)
1.6 µg/mL: MIC (Citrobacter freundii; strain A22140, read-out: MIC) | MIC (Citrobacter freundii; strain A22141, read-out: MIC) | MIC (Enterobacter aerogenes; strain A20941, read-out: MIC) | MIC (Enterobacter aerogenes; strain A20971, read-out: MIC) | MIC (Morganella morganii; IFO3843, strain IFO 3843 MS-1, read-out: MIC) | MIC (Morganella morganii; strain A20455, read-out: MIC) | MIC (Proteus vulgaris; strain A 9699, read-out: MIC) | MIC (Serratia marcescens; strain A20019, read-out: MIC) | MIC (Serratia marcescens; strain A20335, read-out: MIC)
12.5 µg/mL: MIC (Enterobacter aerogenes; strain A21043, read-out: MIC) | MIC (Serratia marcescens; strain A20460, read-out: MIC)
6.3 µg/mL: MIC (Enterobacter aerogenes; strain A20958, read-out: MIC) | MIC (Enterobacter aerogenes; strain A20966, read-out: MIC) | MIC (Enterobacter aerogenes; strain A20994, read-out: MIC) | MIC (Enterobacter aerogenes; strain A21039, read-out: MIC) | MIC (Enterobacter aerogenes; strain A21120, read-out: MIC) | MIC (Enterobacter aerogenes; strain A21130-1, read-out: MIC) | MIC (Enterobacter aerogenes; strain A21158, read-out: MIC) | MIC (Morganella morganii; (GM) of the Morganella morganii strains, read-out: Geometric mean of MIC)
0.084 µg/mL: MIC (Proteus mirabilis; (GM) of the Proteus mirabilis strains, read-out: Geometric mean of MIC)
4.9 µg/mL: MIC (Enterobacter aerogenes; (GM) of the Enterobacter aerogenes strains, read-out: Geometric mean of MIC)
0.066 µg/mL: MIC [2]
1.7 µg/mL: MIC (Citrobacter freundii; (GM) of the Citrobacter freundii strains, read-out: Geometric mean of MIC)
50 µg/mL: MIC (Enterobacter aerogenes; strain A21118, read-out: MIC) | MIC (Enterobacter cloacae; strain A 9655, read-out: MIC)
44 µg/mL: MIC (Serratia species; (GM) of the Serratia species strains, read-out: Geometric mean of MIC)
0.1 µg/mL: MIC (Proteus mirabilis; IFO3849, strain IFO 3849 MS-1, read-out: MIC) | MIC (Proteus mirabilis; strain A 9554, read-out: MIC) | MIC (Proteus mirabilis; strain A 9716, read-out: MIC) | MIC (Proteus mirabilis; strain A20342, read-out: MIC) | MIC (Proteus mirabilis; strain A20454, read-out: MIC) | MIC (Proteus mirabilis; strain A21222, read-out: MIC) | MIC (Proteus vulgaris; strain A 9436, read-out: MIC) | MIC (Proteus vulgaris; strain HX-19 MS-1, read-out: MIC)
0.4 µg/mL: MIC (PCresistant S. aureus) | MIC (Enterobacter aerogenes; strain A21037, read-out: MIC) | MIC (Providencia rettgeri; strain A20645, read-out: MIC)
more than 4 fold: more susceptible to Compound 29 than to FK-482 [3]
17 µg/mL: MIC (Enterobacter cloacae; (GM) of the Enterobacter cloacae strains, read-out: Geometric mean of MIC)
0.013 µg/mL: MIC (Providencia rettgeri; strain A15167 (second line), read-out: MIC)
0.8 µg/mL: MIC (Citrobacter freundii; strain A22142, read-out: MIC) | MIC (Citrobacter freundii; strain A22160, read-out: MIC) | MIC (Citrobacter freundii; strain A22161, read-out: MIC) | MIC (Citrobacter freundii; strain A22166, read-out: MIC) | MIC (Citrobacter freundii; strain A22175, read-out: MIC) | MIC (Citrobacter freundii; strain A22176, read-out: MIC) | MIC (Enterobacter aerogenes; strain A20943, read-out: MIC) | MIC (Enterobacter aerogenes; strain A20996, read-out: MIC) | MIC (Enterobacter aerogenes; strain A21038, read-out: MIC) | MIC (Enterobacter aerogenes; strain A21131, read-out: MIC) | MIC (Enterobacter aerogenes; strain A21152, read-out: MIC) | MIC (Enterobacter cloacae; strain A20650, read-out: MIC) | MIC (Providencia rettgeri; strain A20915, read-out: MIC)
0.015 µg/mL: MIC (Providencia rettgeri; (GM) of the Providencia rettgeri strains, read-out: Geometric mean of MIC)
0.025 µg/mL: MIC (Providencia rettgeri; strain A21205, read-out: MIC) | MIC (Providencia rettgeri; strain A21270, read-out: MIC)
> 50 µg/mL: MIC (Citrobacter freundii; strain A21312, read-out: MIC) | MIC (Enterobacter aerogenes; strain A20940, read-out: MIC) | MIC (Enterobacter aerogenes; strain A20985, read-out: MIC) | MIC (Enterobacter aerogenes; strain A21036, read-out: MIC) | MIC (Enterobacter cloacae; strain A 9659, read-out: MIC) | MIC (Enterobacter cloacae; strain A20344, read-out: MIC) | MIC (Enterobacter cloacae; strain A22551, read-out: MIC) | MIC (Morganella morganii; strain A 9636, read-out: MIC) | MIC (Proteus vulgaris; strain AKH-26, read-out: MIC) | MIC (Serratia marcescens; strain A20333, read-out: MIC) | MIC (Serratia marcescens; strain A20334, read-out: MIC) | MIC (Serratia marcescens; strain A20459, read-out: MIC) | MIC (Serratia marcescens; strain A20461, read-out: MIC) | MIC (Serratia species; strain 6-920, read-out: MIC) | MIC (Serratia species; strain 7-255, read-out: MIC) | MIC (Serratia species; strain 7-454, read-out: MIC) | MIC (Serratia species; strain 7-2322, read-out: MIC) | MIC (Serratia species; strain 8-185, read-out: MIC) | MIC (Serratia species; strain 8-785, read-out: MIC) | MIC (Serratia species; strain 9-50, read-out: MIC) | MIC (Serratia species; strain 9-690, read-out: MIC)
< 0.0063 µg/mL: MIC (Providencia rettgeri; IFO3850, strain IFO 3850 MS-1, read-out: MIC) | MIC (Providencia rettgeri; strain A 9637, read-out: MIC) | MIC (Providencia rettgeri; strain A15167 (first line), read-out: MIC) | MIC (Providencia rettgeri; strain A20920, read-out: MIC) | MIC (Providencia rettgeri; strain A20921, read-out: MIC)
